Tests used:
[1] = Particle size distribution by light scattering (Malvern Mastersizer 2000), Example 1; type: physicochemical; conditions: volume statistics
Excerpt: Abiraterone acetate drug substance was obtained from Hangzhao Dayangchem Co., Ltd.; Hangzhao City, P.R. China.

[2] = Comparative capsule dissolution, 10 mmol phosphate buffer pH 6 with 0.1% SDS, Example 2; type: physicochemical; conditions: pH 6 phosphate buffer, 37° C.
Description: Also, 250 mg of unmilled abiraterone acetate was hand filled into similar capsules. Dissolution profiles were measured in triplicate using a Varian VK7025 dissolution apparatus fitted with (6) 1000 mL vessels, with detection performed in a Varian UV-Vis Spectrophotometer at 270 nm. Each vessel contained 900 mL dissolution media consisting of 10 mmol phosphate buffer at pH 6 with 0.1% SDS added. Experiments were conducted at 37° C. The hard gelatin capsules were fitted inside spiral sinkers before commencing the dissolution experiments.

[3] = Particle size analysis (Malvern Mastersizer 3000), Example 4; type: physicochemical; conditions: volume statistics, in 0.1% PVP
Description: This cycle was continued until the total sonication time reached one minute. […] The sample was then allowed to stir for 5 minutes prior to taking measurements. Data from the final measurements are presented in Table 1 and depicted graphically in FIG. 3. For comparison, the particle size distribution of unmilled abiraterone acetate (raw drug substance) was also determined. […] The sample was then allowed to stir for 5 minutes prior to taking measurements. The data from these measurements are presented in Table 1 and depicted graphically in FIG. 3. […] No fine particle abiraterone acetate was measured in the unmilled drug sample. [table]

[4] = Accelerated stability, 4 hrs at 80° C., total impurities; conditions: after 4 hours at 80° C.
Description: As part of the analysis of impurity growth, the impact on impurity level of various excipients useful for tablet preparation was examined by blending the DPI with various excipients and heating for 4 hours at 80° C.

With `CC(=O)O[C@H]1CC[C@@]2(C)C(=CC[C@@H]3[C@@H]2CC[C@]2(C)C(c4cccnc4)=CC[C@@H]32)C1` [unmilled abiraterone acetate, Abiraterone acetate] the D10 [1] was 16 μm, the D50 [1] was 37 μm and the D90 [1] was 70 μm. The average particle size [1] was “approximately 40 μm” and the “% dissolved after one hour” value [2] was “approximately 10%”.
For `CC(=O)O[C@H]1CC[C@@]2(C)C(=CC[C@@H]3[C@@H]2CC[C@]2(C)C(c4cccnc4)=CC[C@@H]32)C1` [Unmilled, Abiraterone acetate], the “D4,3” value [3] was 28.1 μm, the D10 [3] was 8.18 μm and the D50 [3] was 21.8 μm. For the same molecule, the D90 [3] was 47.3 μm.
With `CC(=O)O[C@H]1CC[C@@]2(C)C(=CC[C@@H]3[C@@H]2CC[C@]2(C)C(c4cccnc4)=CC[C@@H]32)C1` [API prior to size reduction, Abiraterone acetate] the degradation [4] was “essentially no degradation”.
